pIC50: −log10 of the molar value.
How the values were obtained:
[1] = target: Glycogen synthase kinase-3 beta (Homo sapiens, UniProt P49841); assay: Inhibition of human recombinant GSK-3beta using 19F peptide as substrate measured after 1.5 hrs by fluorescence method
Beta-secretase 1 = Beta-secretase 1 (Homo sapiens, UniProt P56817); assay: Inhibition of human recombinant BACE-1 using 19F peptide as substrate measured after 5 hrs by fluorescence method
Cholinesterase [2] = target: T1, Cholinesterase (Homo sapiens, UniProt P06276); assay: Inhibition of BuChE (unknown origin) assessed as decrease in thiocholine accumulation by spectrophotometry
T1 sequence (P06276 whole entry): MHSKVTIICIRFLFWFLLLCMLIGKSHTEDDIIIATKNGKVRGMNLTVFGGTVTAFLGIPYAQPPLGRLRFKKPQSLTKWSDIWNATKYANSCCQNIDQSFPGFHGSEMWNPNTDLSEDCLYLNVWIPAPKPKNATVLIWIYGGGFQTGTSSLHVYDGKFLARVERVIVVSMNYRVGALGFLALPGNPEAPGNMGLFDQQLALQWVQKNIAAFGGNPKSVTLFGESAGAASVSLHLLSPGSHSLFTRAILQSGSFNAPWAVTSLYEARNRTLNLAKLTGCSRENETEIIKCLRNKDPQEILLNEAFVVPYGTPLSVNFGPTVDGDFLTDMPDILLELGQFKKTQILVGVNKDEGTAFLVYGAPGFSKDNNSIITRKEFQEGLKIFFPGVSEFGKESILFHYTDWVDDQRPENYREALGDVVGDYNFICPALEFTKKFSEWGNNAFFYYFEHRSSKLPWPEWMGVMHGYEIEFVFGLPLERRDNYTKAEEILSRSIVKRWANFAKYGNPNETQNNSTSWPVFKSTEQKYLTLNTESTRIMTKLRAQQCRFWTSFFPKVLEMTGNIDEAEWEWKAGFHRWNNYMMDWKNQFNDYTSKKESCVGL

[3] = Inhibition of calcium channel in rat ileum intestine assessed as reduction in Ca-induced contraction; assay type: tissue-based
Mus musculus = assay: In-vivo inhibition of NMDA receptor in mouse assessed as reduction in NMDA-induced convulsions administered intraperitoneally 40 mins before NMDA injection; assay type: functional, organism-based
Acetylcholinesterase = Acetylcholinesterase (Homo sapiens, UniProt P22303); assay: Inhibition of human AChE
Sequence of Acetylcholinesterase (P22303 whole entry): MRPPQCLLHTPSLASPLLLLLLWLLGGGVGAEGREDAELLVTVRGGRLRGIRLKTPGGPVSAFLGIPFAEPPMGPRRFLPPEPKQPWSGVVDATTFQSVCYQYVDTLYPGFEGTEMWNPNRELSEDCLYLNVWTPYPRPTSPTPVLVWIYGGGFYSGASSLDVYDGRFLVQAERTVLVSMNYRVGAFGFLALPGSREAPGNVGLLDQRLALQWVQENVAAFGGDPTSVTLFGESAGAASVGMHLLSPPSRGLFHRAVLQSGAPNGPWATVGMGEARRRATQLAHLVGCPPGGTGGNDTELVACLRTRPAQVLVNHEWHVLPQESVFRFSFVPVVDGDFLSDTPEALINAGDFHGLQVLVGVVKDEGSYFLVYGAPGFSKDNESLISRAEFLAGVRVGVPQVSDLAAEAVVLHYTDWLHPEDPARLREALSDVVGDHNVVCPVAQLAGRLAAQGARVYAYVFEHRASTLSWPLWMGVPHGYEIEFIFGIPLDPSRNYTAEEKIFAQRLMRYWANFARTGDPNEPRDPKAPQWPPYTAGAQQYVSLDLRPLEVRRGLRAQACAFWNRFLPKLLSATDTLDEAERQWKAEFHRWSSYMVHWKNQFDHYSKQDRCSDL

[4] = target: Glutamate [NMDA] receptor; assay: Inhibition of NMDA receptor (unknown origin); assay type: protein-complex assay, Homo sapiens
Cholinesterase [5] = target: T1, Cholinesterase; assay: Inhibition of BChE (unknown origin)
[6] = target: Amyloid-beta precursor protein (Homo sapiens) (UniProt P05067); assay: Inhibition of self-induced amyloid beta (1 to 42) (unknown origin) aggregation at 20 uM
Sequence of Amyloid-beta precursor protein (Homo sapiens) (P05067 whole entry): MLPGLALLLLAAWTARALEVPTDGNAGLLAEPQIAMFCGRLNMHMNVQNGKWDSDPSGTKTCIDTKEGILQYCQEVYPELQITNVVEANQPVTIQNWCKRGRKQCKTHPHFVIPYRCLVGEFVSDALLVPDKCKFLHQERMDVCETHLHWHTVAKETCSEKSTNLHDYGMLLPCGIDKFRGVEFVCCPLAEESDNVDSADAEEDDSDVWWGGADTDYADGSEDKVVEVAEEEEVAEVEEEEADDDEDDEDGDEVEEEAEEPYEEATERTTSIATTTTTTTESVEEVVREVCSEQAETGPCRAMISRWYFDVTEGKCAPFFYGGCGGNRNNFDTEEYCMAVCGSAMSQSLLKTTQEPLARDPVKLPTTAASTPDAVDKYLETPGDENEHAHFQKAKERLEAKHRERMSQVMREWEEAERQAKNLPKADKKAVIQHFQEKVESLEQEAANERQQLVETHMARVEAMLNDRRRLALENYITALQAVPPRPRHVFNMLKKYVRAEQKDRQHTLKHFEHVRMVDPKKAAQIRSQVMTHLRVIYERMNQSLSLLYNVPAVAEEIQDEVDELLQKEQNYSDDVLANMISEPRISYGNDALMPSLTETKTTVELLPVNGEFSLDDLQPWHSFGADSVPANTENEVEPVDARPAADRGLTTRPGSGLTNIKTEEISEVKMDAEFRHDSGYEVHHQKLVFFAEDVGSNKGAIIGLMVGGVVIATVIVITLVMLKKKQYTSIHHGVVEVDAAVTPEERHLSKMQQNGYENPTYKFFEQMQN

[7] = target: Microtubule-associated protein tau (Homo sapiens) (UniProt P10636); assay: Inhibition of tau aggregation (unknown origin) at 20 uM
Sequence of Microtubule-associated protein tau (Homo sapiens) (P10636 whole entry): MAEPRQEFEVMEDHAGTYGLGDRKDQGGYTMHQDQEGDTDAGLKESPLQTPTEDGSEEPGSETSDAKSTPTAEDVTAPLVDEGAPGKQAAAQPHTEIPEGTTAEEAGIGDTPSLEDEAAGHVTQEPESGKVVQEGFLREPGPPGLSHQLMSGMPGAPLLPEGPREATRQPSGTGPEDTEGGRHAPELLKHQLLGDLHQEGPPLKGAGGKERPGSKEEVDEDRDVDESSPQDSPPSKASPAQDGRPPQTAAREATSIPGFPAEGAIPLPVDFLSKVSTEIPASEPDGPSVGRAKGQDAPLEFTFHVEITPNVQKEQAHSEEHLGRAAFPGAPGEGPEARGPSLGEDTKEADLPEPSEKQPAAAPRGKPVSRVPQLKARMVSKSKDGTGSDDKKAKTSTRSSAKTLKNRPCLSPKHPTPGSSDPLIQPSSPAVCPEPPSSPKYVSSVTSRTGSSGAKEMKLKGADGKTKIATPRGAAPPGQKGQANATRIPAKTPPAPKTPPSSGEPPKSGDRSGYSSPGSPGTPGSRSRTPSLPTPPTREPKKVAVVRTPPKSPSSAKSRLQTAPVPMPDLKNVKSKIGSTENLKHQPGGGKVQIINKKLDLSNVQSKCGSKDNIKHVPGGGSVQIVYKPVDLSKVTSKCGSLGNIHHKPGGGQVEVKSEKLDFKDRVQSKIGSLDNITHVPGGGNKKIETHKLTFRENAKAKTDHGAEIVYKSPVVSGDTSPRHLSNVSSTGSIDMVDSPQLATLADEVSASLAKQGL

Cholinesterase [8] = target: T1, Cholinesterase; assay: Inhibition of human BuChE
SK-N-SH = assay: Inhibition of apoptosis in human SK-N-SH cells assessed as […] in cleaved caspase-3 by Western blot analysis; assay type: functional, cell-based

Sequence of Beta-secretase 1 (P56817 whole entry): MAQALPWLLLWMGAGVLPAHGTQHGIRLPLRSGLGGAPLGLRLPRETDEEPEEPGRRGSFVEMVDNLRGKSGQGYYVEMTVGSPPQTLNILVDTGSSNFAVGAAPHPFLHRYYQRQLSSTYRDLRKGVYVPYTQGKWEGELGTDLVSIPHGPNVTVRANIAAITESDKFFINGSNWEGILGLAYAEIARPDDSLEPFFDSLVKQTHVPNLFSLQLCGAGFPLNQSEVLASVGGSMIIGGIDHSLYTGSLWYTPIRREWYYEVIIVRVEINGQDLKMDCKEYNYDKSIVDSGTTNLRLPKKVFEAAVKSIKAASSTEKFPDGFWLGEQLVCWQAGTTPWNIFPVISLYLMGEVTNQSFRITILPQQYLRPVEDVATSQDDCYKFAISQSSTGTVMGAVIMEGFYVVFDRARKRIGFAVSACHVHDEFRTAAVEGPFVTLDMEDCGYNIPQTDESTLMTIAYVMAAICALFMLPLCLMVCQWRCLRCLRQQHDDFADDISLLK
Sequence of Glycogen synthase kinase-3 beta (P49841 whole entry): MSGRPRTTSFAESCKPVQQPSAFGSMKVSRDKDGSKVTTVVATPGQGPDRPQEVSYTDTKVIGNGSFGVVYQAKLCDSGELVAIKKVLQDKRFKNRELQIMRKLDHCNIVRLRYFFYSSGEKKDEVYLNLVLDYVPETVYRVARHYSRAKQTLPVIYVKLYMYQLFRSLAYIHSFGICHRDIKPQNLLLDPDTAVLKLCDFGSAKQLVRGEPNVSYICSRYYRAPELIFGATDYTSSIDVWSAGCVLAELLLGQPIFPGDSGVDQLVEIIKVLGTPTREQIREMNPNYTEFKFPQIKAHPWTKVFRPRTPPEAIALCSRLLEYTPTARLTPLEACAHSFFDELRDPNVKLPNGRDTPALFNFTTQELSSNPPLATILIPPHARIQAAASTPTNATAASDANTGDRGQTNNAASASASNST

## O=c1[nH]c(=O)c2cc[nH]c2[nH]1 [7-DEAZAXANTHINE]
[1]
  pIC50: 6.15
Beta-secretase 1
  pIC50: 6.52

## Cc1ccc2c(c1)c1c(n2CCc2ccc(C)nc2)CCN(C)C1 [LATREPIRDINE]
Cholinesterase [2]
  pIC50: 2.10
[3]
  pIC50: 4.24
Mus musculus
  EC50: 42 mg/kg

## Cc1ccc2[nH]c3c(c2c1)CN(CCCCCCN1CCc2[nH]c4ccc(C)cc4c2C1)CC3
Acetylcholinesterase
  pIC50: 6.71
[4]
  pIC50: 4.96

## CCN1CCc2c(c3ccccc3n2CCC(=O)N2c3ccccc3Sc3ccccc32)C1
Cholinesterase [5]
  pIC50: 6.28

## CC[C@@H](CN1CCCC1=O)C(=O)NCCCCCCCNc1c2c(nc3cc(Cl)ccc13)C[C@H]1C=C(C)C[C@@H]2C1
[6]
  inhibition: 36%
[7]
  inhibition: 54%
Cholinesterase [8]
  pIC50: 6.63
Acetylcholinesterase
  pIC50: 8.38

## C#CCN[C@@H]1CCc2ccc(OC(=O)N(C)CC)cc21 [LADOSTIGIL]
SK-N-SH
  pIC50: 2.98

— ChEMBL document CHEMBL4385595, “Advancement of multi-target drug discoveries and promising applications in the field of Alzheimer's disease” (Eur J Med Chem, 2019)
